In patent US20080058281A1, “Skin Lightening Compositions Comprising Vitamines and Flavonoids” (priority 2004, published 2008):

Test system: Melanoderm (MatTek MEL-300-B) tissue, epidermal keratinocytes (NHEK) and melanocytes (NHM)
Assay: Melanoderm system: quantification of light (alkali-soluble) and dark (alkali-insoluble) melanin
Assay type: cell-based, human
Settings: for Total Melanin: Melanoderm tissue, agents in medium at Table 1 concentrations (Pycnogenol 10 μg/ml, Vit C 30 μg/ml, Vit E 1 μM, Vit B12 1 ng/ml, Vit A 15 ng/ml, cysteine 10 μg/ml, niacinamide 10 μg/ml), control 6.93; for Ratio of light melanin (μg/g)/dark melanin (μg/g) / Dark Melanin / Light Melanin / Dark Melanin, change relative to control / Light Melanin, change relative to control: Table 1 concentrations; for Ratio of light melanin (μg/g)/dark melanin (μg/g): control 0.14; for Dark Melanin: alkali-insoluble melanin, control 6.08; for Dark Melanin / Light Melanin: OD 340 nm; for Light Melanin: alkali-soluble melanin, control 0.85; for Dark Melanin, change relative to control: value in brackets under Dark Melanin; for Light Melanin, change relative to control: value in brackets under Light Melanin
Procedure: In these examples, evaluation of the ability of various agents, individually and in combination, to influence levels of dark and light melanin was tested using the commercially available Melanoderm™ system.
The MelanoDerm™ MatTeks system consists of normal, human-derived epidermal keratinocytes (NHEK) and melanocytes (NHM) which have been cultured to form a multilayered, highly differentiated model of the human epidermis. The NHM within co-cultures undergo spontaneous melanogenesis leading to tissues of varying levels of pigmentation. The tissues are produced using serum free medium without artificial stimulators of melanogenesis such as TPA and IBMX. The cultures are grown on cell culture inserts at the air-liquid interface, allowing for simulated topical application of agents to be tested. Introduction of agents into the medium simulates systemic application.
On delivery, the melanoderms (MatTek MEL-300-B) were placed onto metal ring supports in a 6 well plate containing 5 ml of pre-warmed maintenance media (of EPI-100-MM-PRF), using aseptic technique as per MatTek's protocol. Incubation was carried out overnight at 37° C. and 4% CO2 to allow the melanoderms to recover and equilibrate fully. Once placed under these conditions the MEL-300 tissue, undergo melanogenesis and differentiation.
Treatment was initiated on the following morning. Agents to be tested were dissolved in appropriate solvents and added to warmed media at final concentrations pre-assessed for melanocyte toxicity. Each time the media was changed, the spent media was aspirated from the melanoderms and reserved for testing for toxicity (Lactate Dehydrogenase (Promega)) and Interleukin-1 release (R&D systems) and replaced with a fresh dose of media plus test agents whether within the media of the melanoderm. Melanoderms were returned to the incubator.
On observation of differences in darkening, microscopic and macroscopic darkening were recorded photographically. Harvesting the tissue of the melanoderm involved cutting away the tissue from its plastic support and was followed by quantification of melanin present post-treatment versus untreated.
Melanoderm samples were cut from the plastic holders and the wet weight of tissue measured. 200 μl 1M NaOH/8M urea was added to the melanoderm sample the tissue homogenised in a microfuge tube. Samples were whirlimixed at RT for 30 minutes on and off to release the soluble melanin. Samples were centrifuged at 13,000 rpm for 10 minutes and supernatant containing soluble melanin was removed to a fresh tube.
Protein was extracted from the supernatant by addition of 200 μl chloroform and then by mixing vigorously for 1 minute. Phases were separated by centrifugation at 13,000 rpm for 10 minutes. 150 μl of supernatant was added to a microtitre plate (in duplicate) and the OD 340 nm ascertained.
1M NaOH was added to the remaining pellet which contains the insoluble melanin and the sample vortexed for one minute. The sample was then incubated in a water bath at 37° C. for 96 hrs with daily mixing to released the insoluble melanin. The sample was centrifuged for 10 minutes at 13,000 rpm with 200 μl of chloroform and 190 μl of the supernatant taken to a fresh tube. The supernatant was centrifuged again and 150 μl removed to a microtitre plate for analysis of absorption at 340 nm.
Absolute melanin is calculated as the actual melanin quantity calculated from a previously determined light melanin standard curve: x=(y−0.003)/4.76423 (where x=concentration of melanin and y=optical density at 340 nm).

Molecule | Total Melanin [µg/g] | Ratio of light melanin (μg/g)/dark melanin (μg/g) | Dark Melanin [µg/g] | Light Melanin [µg/g] | Dark Melanin, change relative to control | Light Melanin, change relative to control
Vitamin B12 | 7.93 | 0.19 | 6.66 | 1.27 | (+9.5%) | (+49.4%)
NC(=O)c1cccnc1 [Niacinamide] | 8.10 | 0.13 | 7.16 | 0.94 | (+17.8%) | (+10.6%)
Vitamin A | 7.81 |  | 6.71 |  |  | 
N[C@@H](CS)C(=O)O [Cysteine] | 5.96 | 0.13 | 5.27 | 0.69 | (−13.3%) | (−18.8%)
